Test results taken from PubChem BioAssay (NCI).
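Five compound concentrations were applied to cells in 96-well plates for 48 hours; endpoints were derived by simple linear interpolation of the resulting dose-response curve. Here, GI50 denotes the concentration required for 50% inhibition of growth. TGI: total growth inhibition.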

Key:
Experiment in all cases: NCI anticancer screen, dose series, 48 h
SNB-75 CNS = tested on: SNB-75 CNS
RPMI-8226 leukemia = tested on: RPMI-8226 leukemia
SN12C renal = tested on: SN12C renal
DU-145 prostate = tested on: DU-145 prostate
SF-295 CNS = tested on: SF-295 CNS
SF-539 CNS = tested on: SF-539 CNS
HOP-62 NSCLC = tested on: HOP-62 NSCLC
HT29 colon = tested on: HT29 colon
MCF7 breast = tested on: MCF7 breast
OVCAR-4 ovarian = tested on: OVCAR-4 ovarian

| Compound | GI50 (SNB-75 CNS) [µM] | TGI (SNB-75 CNS) [µM] | GI50 (RPMI-8226 leukemia) [µM] | TGI (RPMI-8226 leukemia) [µM] | GI50 (SN12C renal) [µM] | TGI (SN12C renal) [µM] | GI50 (DU-145 prostate) [µM] | TGI (DU-145 prostate) [µM] | GI50 (SF-295 CNS) [µM] | TGI (SF-295 CNS) [µM] | GI50 (SF-539 CNS) [µM] | TGI (SF-539 CNS) [µM] | GI50 (HOP-62 NSCLC) [µM] | TGI (HOP-62 NSCLC) [µM] | GI50 (HT29 colon) [µM] | TGI (HT29 colon) [µM] | GI50 (MCF7 breast) [µM] | TGI (MCF7 breast) [µM] | GI50 (OVCAR-4 ovarian) [µM] | TGI (OVCAR-4 ovarian) [µM] |
| --- | --- | --- | --- | --- | --- | --- | --- | --- | --- | --- | --- | --- | --- | --- | --- | --- | --- | --- | --- | --- |
| CCCn1cnc2c(SCc3ccccc3Cl)nc(N)nc21 | 19.7 | 86 | 6.28 | 28.2 | 19.6 | 95.2 | 15.5 | 45.6 | 10.2 | 30.4 | 9.81 | 44.8 | 21.1 | > 100 | 7.59 | > 100 | 38.6 | > 100 | 28 | > 100 |
| Cc1ccc2c(c1)[n+]([O-])c(N)n[n+]2[O-] |  | > 100 |  | > 100 |  | > 100 |  | > 100 |  | > 100 |  | > 100 |  | > 100 |  | > 100 |  | > 100 |  | > 100 |
| CS(=O)(=O)c1ccc([C@H]2O[C@@H](CO)C[C@]2(O)c2ccc(S(C)(=O)=O)cc2)cc1 | > 100 | > 100 | > 100 | > 100 | > 100 | > 100 | > 100 | > 100 | > 100 | > 100 | > 100 | > 100 | > 100 | > 100 | > 100 | > 100 | > 100 | > 100 | > 100 | > 100 |
| CC1(C)OC2[C@@H](CNC(=O)NC(=O)NC(=O)CI)O[C@@H](n3cnc4c(NC(=O)Nc5ccccc5)ncnc43)[C@H]2O1 (some centres undefined) | 6.62 | 13.3 | 7.82 | 23.3 | 10.3 | 28.6 | 14.5 | > 50 | 9.18 | 19.4 | 4.75 | 10.9 | > 50 | > 50 | 3.96 | 12.2 | 6.17 | 14.2 | 7.16 | 21 |
| Oc1ccc2ccccc2c1N=Nc1nccs1 | 1.46 | 24.7 | 0.187 |  | 1.77 | 44 | 2.17 | 16 | 3.93 | > 57.4 | 2.33 | 13.2 | 3.87 | 56.8 | 1.72 | 23.3 | 0.471 | 16.7 | 0.457 | 16.8 |
| Oc1ccc(NCc2nc3ccccc3[nH]2)cc1 | 18 | 62.5 | 72.8 | > 100 | 61.4 | > 100 | 75.9 | > 100 | 24.4 | 97.2 | 51.7 | > 100 | 22.4 | 62.2 | > 100 | > 100 | 32.8 | > 100 | 28.7 | > 100 |
| CC[CH2][Sn]([CH2]CC)([O]C(=O)c1cccnc1SC)[O][Sn]([CH2]CC)([CH2]CC)[O]C(=O)c1cccnc1SC | 0.584 | 1.97 | 0.139 | > 100 | 0.453 | 1.39 | 2.37 | 7.11 | 1.04 | 3.04 | 0.468 | 1.24 | 2.32 | 5.31 | 1.1 | 3.33 | 0.495 | 1.72 | 1.03 | 2.34 |
| O=C1c2cc(Cl)ccc2S(=O)(=O)c2c(NCCCNCCO)nc3ccccc3c21 | 2.15 | 9.35 | 0.888 | 3.28 | 1.25 | 2.51 | 1.25 | 2.52 | 3.26 | 12.4 | 1.6 | 3.13 | 4.54 | 16.7 | 1.4 | 2.94 | 1.52 | 3.71 | 0.985 | 2.18 |
| OCc1c[nH]c2ccccc12 | 24.2 | > 100 | 20.6 | 64.2 | 18.9 | 39.7 | 28.7 | 77.4 | 19.4 | 40.9 | 19.3 | 46.1 | 14.4 | 36.7 | 24 | 54.6 | 29.4 | 95.4 | 33 | > 100 |
| O=C(N/N=C/c1ccccc1O)c1ccccc1Nc1ccnc(C(F)(F)F)c1 | 2.25 | 52.2 | 0.189 | 1.64 | 0.974 | 72.6 | 0.478 | > 48.7 | 0.573 | 27.6 | 0.545 | 11.3 | 0.41 | 13.4 | 3.32 | 53.5 | 0.35 | 29.2 | 0.271 | > 100 |
| CCOc1cc2c(Cl)ncnc2c(OCC)c1OCC | 3.11 | 15.9 | 3.29 | 20.6 | 12 | 26.2 | 1.75 | 3.14 | 9.25 | 29.2 | 14 | 27.8 | 15.5 | 30.9 | 7.59 | 32.9 | 2.3 | 7.55 | 13 | 27.7 |
| C=CCCCCCCCCC(=O)[O][Sn]([CH2]CCC)([CH2]CCC)[CH2]CCC | 0.134 | 0.326 | 0.035 | 0.278 | 0.153 | 0.331 | 0.15 | 0.29 | 0.159 | 0.337 | 0.169 | 0.332 | 0.172 | 0.346 | 0.154 | 0.332 | 0.137 | 0.272 | 0.12 | 0.251 |
